# Measurements taken from publication PMC7260106 (Toxicology in vitro : an international journal published in …, 2020).
# How the values were obtained:
# Ah receptor (AhR) [1] = molecular target: T1, Ah receptor (AhR) (Mus musculus, UniProt P30561); assay: yAhR nuclear translocation in yAHAYc6 cells, fluorescence microscopy; format: cell-based
# T1 sequence (P30561 10-848): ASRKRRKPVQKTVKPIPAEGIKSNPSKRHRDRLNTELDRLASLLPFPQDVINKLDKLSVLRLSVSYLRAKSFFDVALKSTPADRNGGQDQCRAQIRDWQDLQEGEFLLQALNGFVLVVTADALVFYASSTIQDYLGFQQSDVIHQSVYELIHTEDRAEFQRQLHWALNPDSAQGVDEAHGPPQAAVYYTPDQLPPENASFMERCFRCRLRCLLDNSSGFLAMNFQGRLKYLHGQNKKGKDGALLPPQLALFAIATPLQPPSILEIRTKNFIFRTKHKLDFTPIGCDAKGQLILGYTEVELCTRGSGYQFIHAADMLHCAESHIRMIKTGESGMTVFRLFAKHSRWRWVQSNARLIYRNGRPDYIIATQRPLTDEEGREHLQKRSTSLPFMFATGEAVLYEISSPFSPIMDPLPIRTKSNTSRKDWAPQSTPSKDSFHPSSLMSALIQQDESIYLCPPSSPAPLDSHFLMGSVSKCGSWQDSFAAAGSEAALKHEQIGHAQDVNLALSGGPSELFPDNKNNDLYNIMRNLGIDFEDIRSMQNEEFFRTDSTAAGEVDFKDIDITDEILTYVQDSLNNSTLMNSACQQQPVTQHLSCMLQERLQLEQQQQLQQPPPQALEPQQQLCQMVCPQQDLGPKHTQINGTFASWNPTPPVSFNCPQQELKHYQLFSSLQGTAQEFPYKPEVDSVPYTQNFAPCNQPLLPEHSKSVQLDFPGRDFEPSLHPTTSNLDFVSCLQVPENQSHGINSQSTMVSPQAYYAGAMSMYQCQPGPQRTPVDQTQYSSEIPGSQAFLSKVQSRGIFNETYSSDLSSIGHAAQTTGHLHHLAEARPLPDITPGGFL
# Ah receptor (AhR) [2] = molecular target: T1, Ah receptor (AhR); assay: yAhR nuclear translocation in yAHAYc6 cells; format: cell-based
Compound,"yAhR nuclear translocation in yAHAYc6 cells, fluorescence microscopy (Ah receptor (AhR) [1])",EC50 (Ah receptor (AhR) [2])
O=C1Nc2ccccc2/C1=C1/Nc2ccccc2C1=O [indirubin],"known AhR agonists (TCDD, DBA, PCB77, indirubin, 3MC and BNF",–
Cc1ccc2cc3c(ccc4ccccc43)c3c2c1CC3 [3-methylcholanthrene],"known AhR agonists (TCDD, DBA, PCB77, indirubin, 3MC and BNF",–
"Clc1ccc(-c2ccc(Cl)c(Cl)c2)cc1Cl [PCB77, 3,3’,4,4’-Tetrachlorobiphenyl]","known AhR agonists (TCDD, DBA, PCB77, indirubin, 3MC and BNF",–
"c1ccc2c(c1)ccc1cc3c(ccc4ccccc43)cc12 [dibenz(a,h)anthracene]","known AhR agonists (TCDD, DBA, PCB77, indirubin, 3MC and BNF",–
"Clc1cc2c(cc1Cl)Oc1cc(Cl)c(Cl)cc1O2 [TCDD, 2,3,7,8-tetrachlorodibenzo-p-dioxin]",–,0.2 nM
